Measured values from US9828350B2, “5,6-dihydro-2H-[1,4]oxazin-3-yl-amine derivatives useful as inhibitors of beta-secretase (BACE)” (Janssen Pharmaceutica NV, priority 2010, dated 2017).

Assay: Single dose pharmacology in the Beagle dog, limited safety evaluation
Assay type: in vivo
Conditions: single dose 20 mg/kg
Method: Single Dose Pharmacology in the Beagle Dog
Compound 86 was tested to evaluate the effect on the beta-amyloid profile in cerebrospinal fluid (CSF) of dogs after a single dose, in combination with pharmacokinetic (PK) follow up and limited safety evaluation. 6 Beagle dogs (3 male, 3 female) were dosed with vehicle (4 ml/kg of an aqueous suspension of 20% cyclodextrin and Tween) and 6 Beagle dogs (3 male, 3 female) were dosed with compound 86 (20 mg/kg in 2 ml/kg of an aqueous 20% cyclodextrin solution) on an empty stomach. CSF was taken in conscious animals directly from the lateral ventricle via a cannula which was screwed in the skull and covered with subcutaneous tissue and skin, before and at 4, 8 and 24 hours after dosing. 8 Hours after dosing the animals got access to their regular meal for 30 minutes. Blood was taken for PK follow up (0.5, 1, 2, 4, 8 and 24 hours) and at the time of the CSF sampling, samples for serum analysis were taken. An additional sample for serum analysis was taken 10 days after dosing. The CSF samples were used for measurement of Abeta 1-37, Abeta 1-38, Abeta 1-40 and Abeta 1-42.

C[C@]1(c2cccc(NC(=O)c3ccc(Cl)cn3)c2)N=C(N)CO[C@@H]1F (single isomer, unassigned) [Compound 86, (R*,R*)—N-[3-(5-amino-2-fluoro-3-methyl-3,6-dihydro-2H-1,4-oxazin-3-yl)phenyl]-5-chloropyridine-2-carboxamide]
clinical abnormalities in behavior: no overt clinical abnormalities in behavior
changes in serum parameters (liver enzymes, bilirubin, ...) (serum up to 10 days after dosing): No acute or delayed changes in serum parameters
